According to patent publication US20240383856A1 (Zedira GmbH, priority 2021, published 2024):

Tests used:
[1] = Caco-2 permeability assay (CacoReady kit); assay type: in vitro ADME; conditions: human, Caco-2, Caco-2 barrier, CacoReady kit; above 1×10^−6 cm/s classified as permeable
How it was run: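 Apparent permeability coefficients (Papp) were measured across Caco-2 cell barriers using a ready-to-use kit run per the supplier's protocol. Values serve as a predictor of oral/intestinal bioavailability.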

[2] = biological target: T1, recombinant human transglutaminase 2 (Homo sapiens, UniProt P21980); assay: Transglutaminase assay (DCC-assay): incorporation of dansylcadaverine into dimethylcasein; assay type: biochemical; conditions: recombinant human TG2 10 nM; dansylcadaverine incorporation into dimethylcasein; read-out: IC50 TG2
T1 construct: purchased Zedira T022
T1 sequence (P21980 1-687): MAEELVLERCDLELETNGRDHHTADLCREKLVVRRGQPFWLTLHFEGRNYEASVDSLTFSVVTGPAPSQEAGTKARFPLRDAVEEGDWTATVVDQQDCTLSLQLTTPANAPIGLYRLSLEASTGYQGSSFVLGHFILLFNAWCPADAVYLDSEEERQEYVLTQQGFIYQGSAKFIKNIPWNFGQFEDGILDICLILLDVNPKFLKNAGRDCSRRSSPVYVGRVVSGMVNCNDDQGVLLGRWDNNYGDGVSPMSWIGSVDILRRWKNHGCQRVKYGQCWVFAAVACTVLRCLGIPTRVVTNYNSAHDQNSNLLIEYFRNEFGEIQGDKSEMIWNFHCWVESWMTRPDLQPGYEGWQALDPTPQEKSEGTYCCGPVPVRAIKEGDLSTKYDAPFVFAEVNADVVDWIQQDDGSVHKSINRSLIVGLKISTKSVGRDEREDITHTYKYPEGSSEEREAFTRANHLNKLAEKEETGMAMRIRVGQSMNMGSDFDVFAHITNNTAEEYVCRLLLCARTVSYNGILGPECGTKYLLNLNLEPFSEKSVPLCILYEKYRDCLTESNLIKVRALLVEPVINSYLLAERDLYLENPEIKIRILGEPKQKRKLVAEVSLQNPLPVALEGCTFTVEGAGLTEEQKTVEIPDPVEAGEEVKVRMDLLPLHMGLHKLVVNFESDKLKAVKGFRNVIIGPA
How it was run: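 Recombinant human TG2 (10 nM final) incorporates dansylcadaverine into N,N-dimethylcasein. Reaction mix: 50 mM Tris-HCl, 10 mM CaCl2, 10 mM glutathione, 2.5% glycerol, 16.7 µM dansylcadaverine, 4 µM dimethylcasein, 200 mM NaCl, pH 8.0. Fluorescence (ex 330/em 500 nm) was followed 30 min at 37 °C; the 20–30 min slope, expressed as % of 2% DMSO control, gave IC50.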

[3] = logD by shake flask method (octanol / PBS pH 7.4, HPLC); assay type: physicochemical; conditions: octanol / PBS pH 7.4, shake flask
How it was run: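 Shake-flask partition of compound between octanol and phosphate-buffered saline at pH 7.4, with each phase quantified by HPLC to give LogD.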

Structure (SMILES)	Papp [1] [×10⁻⁶ cm/s]	IC50 [2] [nM]	logD [3]
CNC(=O)C(=O)CC[C@H](NC(=O)c1ccc2c(c1)CC(=O)NC2)C(=O)Nc1cccn(CC(=O)NC2(C(=O)O)C3CC4CC2CC(C(F)(F)F)(C4)C3)c1=O (stereo partly drawn) [II-186, (S)-N1-(1-(2-(2-carboxy-2-amino-5-(trifluoromethyl)adamantane)-2-oxoethyl)-2-oxo-1,2-dihydropyridin-3-yl)-N6-methyl-5-oxo-2-(3-oxo-1,2,3,4-tetrahydroisoquinoline-6-carboxamido)hexanediamide]	< 1	400 to 2500	< 1
CCC12CC3CC(C1)C(NC(=O)Cn1cccc(NC(=O)[C@H](CCC(=O)C(=O)NC)NC(=O)c4ccc5cnccc5n4)c1=O)C(C3)C2 (stereo partly drawn) [II-187, (S)-N1-(1-(2-(5-ethyladamantane-2-amino)-2-oxoethyl)-2-oxo-1,2-dihydropyridin-3-yl)-N6-methyl-2-(1,6-naphthyridine-2-carboxamido)-5-oxohexanediamide]	1 to 10	400 to 2500	3 to 5
CNC(=O)C(=O)CC[C@H](NC(=O)c1nccc2cnccc12)C(=O)Nc1cccn(CC(=O)NC23CCC(C2)C3)c1=O [II-188, (S)-N1-(1-(2-(bicyclo[2.1.1]hexan-1-ylamino)-2-oxoethyl)-2-oxo-1,2-dihydropyridin-3-yl)-N6-methyl-2-(2,6-naphthyridine-1-carboxamido)-5-oxohexanediamide]	< 1	400 to 2500	< 1
CNC(=O)C(=O)CC[C@H](NC(=O)c1nonc1N)C(=O)Nc1cccn(CC(=O)NC23CC(C2)C3)c1=O [II-189, (S)-2-(4-amino-1,2,5-oxadiazole-3-carboxamido)-N1-(1-(2-(bicyclo[1.1.1]pentan-1-ylamino)-2-oxoethyl)-2-oxo-1,2-dihydropyridin-3-yl)-N6-methyl-5-oxohexanediamide]	< 1	400 to 2500	< 1
CNC(=O)C(=O)CC[C@H](NC(=O)c1cc2ccc(N(C)C)cc2o1)C(=O)Nc1cccn(CC(=O)NC23CC(C2)C3)c1=O [II-190, (S)-N1-(1-(2-(bicyclo[1.1.1]pentan-1-ylamino)-2-oxoethyl)-2-oxo-1,2-dihydropyridin-3-yl)-2-(6-(dimethylamino)benzofuran-2-carboxamido)-N6-methyl-5-oxohexanediamide]	< 1	400 to 2500	< 1
CNC(=O)C(=O)CC[C@H](NC(=O)c1cnc(NC(C)=O)s1)C(=O)Nc1cccn(CC(=O)NC23CC(C2)C3)c1=O [II-191, (S)-2-(2-acetamidothiazole-5-carboxamido)-N1-(1-(2-(bicyclo[1.1.1]pentan-1-ylamino)-2-oxoethyl)-2-oxo-1,2-dihydropyridin-3-yl)-N6-methyl-5-oxohexanediamide]	< 1	400 to 2500	< 1
CNC(=O)C(=O)CC[C@H](NC(=O)c1c[nH]c(C(N)=O)c1)C(=O)Nc1cccn(CC(=O)NC23CC(C2)C3)c1=O [II-192, (S)-N4-(1-(1-(2-(bicyclo[1.1.1]pentan-1-ylamino)-2-oxoethyl)-2-oxo-1,2-dihydropyridin-3-ylamino)-6-(methylamino)-1,5,6-trioxohexan-2-yl)-1H-pyrrole-2,4-dicarboxamide]	< 1	400 to 2500	< 1
CNC(=O)C(=O)CC[C@H](NC(=O)c1coc(S(N)(=O)=O)c1)C(=O)Nc1cccn(CC(=O)NC2C3CC4CC2CC(NC(C)=O)(C4)C3)c1=O (stereo partly drawn) [II-193, (S)-N1-(1-(2-(1-acetylamino-4-aminoadamantane)-2-oxoethyl)-2-oxo-1,2-dihydropyridin-3-yl)-N6-methyl-5-oxo-2-(5-sulfamoylfuran-3-carboxamido)hexanediamide]	< 1	400 to 2500	< 1
CNC(=O)C(=O)CC[C@H](NC(=O)c1ccc2occc2c1)C(=O)Nc1cccn(CC(=O)NC2C3CC4CC2CC(NC(C)=O)(C4)C3)c1=O (stereo partly drawn) [II-194, (S)-2-(benzofuran-5-carboxamido)-N1-(1-(2-(1-acetylamino-4-aminoadamantane)-2-oxoethyl)-2-oxo-1,2-dihydropyridin-3-yl)-N6-methyl-5-oxohexanediamide]	< 1	40 to 400	< 1
CNC(=O)C(=O)CC[C@H](NC(=O)c1ccc2ccoc2c1)C(=O)Nc1cccn(CC(=O)NC2C3CC4CC2CC(C(N)=O)(C4)C3)c1=O (stereo partly drawn) [II-195, (S)-2-(benzofuran-6-carboxamido)-N1-(1-(2-(4-aminoadamantane-1-carboxamide)-2-oxoethyl)-2-oxo-1,2-dihydropyridin-3-yl)-N6-methyl-5-oxohexanediamide]	< 1	40 to 400	< 1
CNC(=O)C(=O)CC[C@H](NC(=O)c1nc(C2(C)CC2)no1)C(=O)Nc1cccn(CC(=O)NC2C3CC4CC2CC(C(N)=O)(C4)C3)c1=O (stereo partly drawn) [II-196, (S)-N1-(1-(2-(4-aminoadamantane-1-carboxamide)-2-oxoethyl)-2-oxo-1,2-dihydropyridin-3-yl)-N6-methyl-2-(3-(1-methylcyclopropyl)-1,2,4-oxadiazole-5-carboxamido)-5-oxohexanediamide]	< 1	400 to 2500	< 1
CNC(=O)C(=O)CC[C@H](NC(=O)c1noc(C)n1)C(=O)Nc1cccn(CC(=O)NC23CC(C2)C3)c1=O [II-197, (S)-N1-(1-(2-(bicyclo[1.1.1]pentan-1-ylamino)-2-oxoethyl)-2-oxo-1,2-dihydropyridin-3-yl)-N6-methyl-2-(5-methyl-1,2,4-oxadiazole-3-carboxamido)-5-oxohexanediamide]	< 1	400 to 2500	< 1
CNC(=O)C(=O)CC[C@H](NC(=O)c1csnn1)C(=O)Nc1cccn(CC(=O)NC23CC(C2)C3)c1=O [II-198, (S)-N1-(1-(2-(bicyclo[1.1.1]pentan-1-ylamino)-2-oxoethyl)-2-oxo-1,2-dihydropyridin-3-yl)-N6-methyl-5-oxo-2-(1,2,3-thiadiazole-4-carboxamido)hexanediamide]	< 1	40 to 400	< 1
CNC(=O)C(=O)CC[C@H](NC(=O)c1ncns1)C(=O)Nc1cccn(CC(=O)NC23CC(C2)C3)c1=O [II-199, (S)-N1-(1-(2-(bicyclo[1.1.1]pentan-1-ylamino)-2-oxoethyl)-2-oxo-1,2-dihydropyridin-3-yl)-N6-methyl-5-oxo-2-(1,2,4-thiadiazole-5-carboxamido)hexanediamide]	< 1	40 to 400	< 1
CNC(=O)C(=O)CC[C@H](NC(=O)c1nncs1)C(=O)Nc1cccn(CC(=O)NC23CC(C2)C3)c1=O [II-200, (S)-N1-(1-(2-(bicyclo[1.1.1]pentan-1-ylamino)-2-oxoethyl)-2-oxo-1,2-dihydropyridin-3-yl)-N6-methyl-5-oxo-2-(1,3,4-thiadiazole-2-carboxamido)hexanediamide]	< 1	40 to 400	< 1
CNC(=O)C(=O)CC[C@H](NC(=O)c1snnc1C1CC1)C(=O)Nc1cccn(CC(=O)NC23CC(C2)C3)c1=O [II-201, (S)-N1-(1-(2-(bicyclo[1.1.1]pentan-1-ylamino)-2-oxoethyl)-2-oxo-1,2-dihydropyridin-3-yl)-2-(4-cyclopropyl-1,2,3-thiadiazole-5-carboxamido)-N6-methyl-5-oxohexanediamide]	< 1	40 to 400	< 1
CNC(=O)C(=O)CC[C@H](NC(=O)c1snnc1C1CC1)C(=O)Nc1cccn(CC(=O)NC2C3CC4CC(C3)CC2C4)c1=O (stereo partly drawn) [II-202, (S)-2-(4-cyclopropyl-1,2,3-thiadiazole-5-carboxamido)-N1-(1-(2-(2-adamantylamino)-2-oxoethyl)-2-oxo-1,2-dihydropyridin-3-yl)-N6-methyl-5-oxohexanediamide]	< 1	40 to 400	< 1
CNC(=O)C(=O)CC[C@H](NC(=O)c1snnc1C(C)C)C(=O)Nc1cccn(CC(=O)NC2C3CC4CC(C3)CC2C4)c1=O (stereo partly drawn) [II-203, (S)-2-(4-isopropyl-1,2,3-thiadiazole-5-carboxamido)-N1-(1-(2-(2-adamantylamino)-2-oxoethyl)-2-oxo-1,2-dihydropyridin-3-yl)-N6-methyl-5-oxohexanediamide]	< 1	40 to 400	1 to 3
